Data reported in publication PMC5656653, “Evaluation of Ga-DOTA-(D-Asp)n as bone imaging agents: D-aspartic acid peptides as carriers to bone” (Scientific Reports, 2017).
Entries after “also recorded” stand apart in the source; their conditions may differ.

Assay: Biodistribution experiments in normal mice after i.v. injection
Assay type: in vivo
Details: i.v.; for Biodistribution of radioactivity, Blood / Biodistribution of radioactivity, Bone (Femur) / Biodistribution of radioactivity, Brain / Biodistribution of radioactivity, Heart / Biodistribution of radioactivity, Kidney / Biodistribution of radioactivity, Large-intestine / Biodistribution of radioactivity, Liver / Biodistribution of radioactivity, Lung / Biodistribution of radioactivity, Muscle / Biodistribution of radioactivity, Pancreas / Biodistribution of radioactivity, Small-intestine / Biodistribution of radioactivity, Spleen / F/B ratio (Femur:blood ratio) / Biodistribution of radioactivity, Stomach: mice, mean (SD); for Biodistribution of radioactivity, Stomach: footnote b; for Accumulation of radioactivity in bone (in words): normal mice
Experimental: Experiments with animals were conducted in strict accordance with the Guidelines for the Care and Use of Laboratory Animals of Kanazawa University. The animal experimental protocols used were approved by the Committee on Animal Experimentation of Kanazawa University (Permit Number: AP-132633). Biodistribution experiments were performed after intravenous administration of each diluted tracer solution (37–740 kBq/100 μL) to 6-week-old male ddY mice (27–32 g, Japan SLC, Inc., Hamamatsu, Japan). Four or five mice at each time point after the administration of each compound were sacrificed by decapitation at 10, 60, and 180 min post-injection. Tissues of interest were taken and weighed. Complete left femurs were isolated as representative bone samples, radioactivity was determined using gamma counters (AccuFLEX γ ARC-8001 in the case of ^18F, Hitachi, Ltd.), and background counts and physical decay were corrected during counting.

Structure (SMILES): O.O.O=P([O-])([O-])CP(=O)([O-])[O-].[99Tc+4] [^99mTc-MDP, ^99mTc-methylenediphosphonate, reference compound]
- Biodistribution of radioactivity, Blood (10 min after injection): 2.43 (0.10) % injected dose
- Biodistribution of radioactivity, Bone (Femur) (10 min after injection): 20.76 (1.51) % injected dose
- Biodistribution of radioactivity, Brain (10 min after injection): 0.06 (0.01) % injected dose
- Biodistribution of radioactivity, Heart (10 min after injection): 0.94 (0.05) % injected dose
- Biodistribution of radioactivity, Kidney (10 min after injection): 10.44 (1.56) % injected dose
- Biodistribution of radioactivity, Large-intestine (10 min after injection): 0.61 (0.20) % injected dose
- Biodistribution of radioactivity, Liver (10 min after injection): 0.61 (0.02) % injected dose
- Biodistribution of radioactivity, Lung (10 min after injection): 1.80 (0.16) % injected dose
- Biodistribution of radioactivity, Muscle (10 min after injection): 0.57 (0.09) % injected dose
- Biodistribution of radioactivity, Pancreas (10 min after injection): 0.77 (0.10) % injected dose
- Biodistribution of radioactivity, Small-intestine (10 min after injection): 0.69 (0.15) % injected dose
- Biodistribution of radioactivity, Spleen (10 min after injection): 0.54 (0.07) % injected dose
- F/B ratio (Femur:blood ratio) (10 min after injection): 8.54 (0.57)
- Biodistribution of radioactivity, Stomach (10 min after injection): 0.63 (0.14) % injected dose
- Biodistribution of radioactivity, Blood (60 min after injection): 0.23 (0.04) % injected dose
- Biodistribution of radioactivity, Bone (Femur) (60 min after injection): 27.92 (3.25) % injected dose
- Biodistribution of radioactivity, Brain (60 min after injection): 0.02 (0.00) % injected dose
- Biodistribution of radioactivity, Heart (60 min after injection): 0.16 (0.02) % injected dose
- Biodistribution of radioactivity, Kidney (60 min after injection): 2.03 (0.50) % injected dose
- Biodistribution of radioactivity, Large-intestine (60 min after injection): 0.14 (0.04) % injected dose
- Biodistribution of radioactivity, Liver (60 min after injection): 0.27 (0.05) % injected dose
- Biodistribution of radioactivity, Lung (60 min after injection): 0.30 (0.03) % injected dose
- Biodistribution of radioactivity, Muscle (60 min after injection): 0.13 (0.04) % injected dose
- Biodistribution of radioactivity, Pancreas (60 min after injection): 0.13 (0.02) % injected dose
- Biodistribution of radioactivity, Small-intestine (60 min after injection): 1.55 (1.68) % injected dose
- Biodistribution of radioactivity, Spleen (60 min after injection): 0.14 (0.02) % injected dose
- F/B ratio (Femur:blood ratio) (60 min after injection): 120.87 (9.30)
- Biodistribution of radioactivity, Stomach (60 min after injection): 0.70 (0.37) % injected dose
- Biodistribution of radioactivity, Blood (180 min after injection): 0.05 (0.01) % injected dose
- Biodistribution of radioactivity, Bone (Femur) (180 min after injection): 29.03 (2.12) % injected dose
- Biodistribution of radioactivity, Brain (180 min after injection): 0.01 (0.00) % injected dose
- Biodistribution of radioactivity, Heart (180 min after injection): 0.07 (0.02) % injected dose
- Biodistribution of radioactivity, Kidney (180 min after injection): 1.22 (0.36) % injected dose
- Biodistribution of radioactivity, Large-intestine (180 min after injection): 0.23 (0.07) % injected dose
- Biodistribution of radioactivity, Liver (180 min after injection): 0.16 (0.04) % injected dose
- Biodistribution of radioactivity, Lung (180 min after injection): 0.10 (0.02) % injected dose
- Biodistribution of radioactivity, Muscle (180 min after injection): 0.06 (0.01) % injected dose
- Biodistribution of radioactivity, Pancreas (180 min after injection): 0.07 (0.01) % injected dose
- Biodistribution of radioactivity, Small-intestine (180 min after injection): 0.26 (0.08) % injected dose
- Biodistribution of radioactivity, Spleen (180 min after injection): 0.07 (0.01) % injected dose
- F/B ratio (Femur:blood ratio) (180 min after injection): 546.64 (91.83)
- Biodistribution of radioactivity, Stomach (180 min after injection): 0.29 (0.07) % injected dose
- Accumulation of radioactivity in bone (in words): high accumulation and retention of radioactivity in bone

Structure (SMILES): [18F-].[Na+] [[^18F]NaF, reference compound]
- Biodistribution of radioactivity, Blood (10 min after injection): 1.78 (0.23) % injected dose
- Biodistribution of radioactivity, Bone (Femur) (10 min after injection): 27.69 (3.15) % injected dose
- Biodistribution of radioactivity, Brain (10 min after injection): 0.10 (0.02) % injected dose
- Biodistribution of radioactivity, Heart (10 min after injection): 1.84 (0.41) % injected dose
- Biodistribution of radioactivity, Kidney (10 min after injection): 5.23 (2.31) % injected dose
- Biodistribution of radioactivity, Large-intestine (10 min after injection): 0.95 (0.22) % injected dose
- Biodistribution of radioactivity, Liver (10 min after injection): 1.34 (0.17) % injected dose
- Biodistribution of radioactivity, Lung (10 min after injection): 1.44 (0.19) % injected dose
- Biodistribution of radioactivity, Muscle (10 min after injection): 0.83 (0.13) % injected dose
- Biodistribution of radioactivity, Pancreas (10 min after injection): 0.87 (0.15) % injected dose
- Biodistribution of radioactivity, Small-intestine (10 min after injection): 1.31 (0.22) % injected dose
- Biodistribution of radioactivity, Spleen (10 min after injection): 1.10 (0.15) % injected dose
- F/B ratio (Femur:blood ratio) (10 min after injection): 15.59 (1.01)
- Biodistribution of radioactivity, Stomach (10 min after injection): 0.36 (0.04) % injected dose
- Biodistribution of radioactivity, Blood (60 min after injection): 0.11 (0.04) % injected dose
- Biodistribution of radioactivity, Bone (Femur) (60 min after injection): 39.96 (2.52) % injected dose
- Biodistribution of radioactivity, Brain (60 min after injection): 0.36 (0.52) % injected dose
- Biodistribution of radioactivity, Heart (60 min after injection): 0.15 (0.05) % injected dose
- Biodistribution of radioactivity, Kidney (60 min after injection): 1.13 (0.89) % injected dose
- Biodistribution of radioactivity, Large-intestine (60 min after injection): 1.21 (0.27) % injected dose
- Biodistribution of radioactivity, Liver (60 min after injection): 0.09 (0.02) % injected dose
- Biodistribution of radioactivity, Lung (60 min after injection): 0.10 (0.03) % injected dose
- Biodistribution of radioactivity, Muscle (60 min after injection): 0.07 (0.04) % injected dose
- Biodistribution of radioactivity, Pancreas (60 min after injection): 0.08 (0.08) % injected dose
- Biodistribution of radioactivity, Small-intestine (60 min after injection): 0.68 (0.10) % injected dose
- Biodistribution of radioactivity, Spleen (60 min after injection): 0.08 (0.02) % injected dose
- F/B ratio (Femur:blood ratio) (60 min after injection): 381.63 (84.17)
- Biodistribution of radioactivity, Stomach (60 min after injection): 0.06 (0.02) % injected dose
- Biodistribution of radioactivity, Blood (180 min after injection): 0.02 (0.00) % injected dose
- Biodistribution of radioactivity, Bone (Femur) (180 min after injection): 43.91 (2.64) % injected dose
- Biodistribution of radioactivity, Brain (180 min after injection): 0.05 (0.02) % injected dose
- Biodistribution of radioactivity, Heart (180 min after injection): 0.02 (0.01) % injected dose
- Biodistribution of radioactivity, Kidney (180 min after injection): 0.15 (0.08) % injected dose
- Biodistribution of radioactivity, Large-intestine (180 min after injection): 1.39 (0.19) % injected dose
- Biodistribution of radioactivity, Liver (180 min after injection): 0.02 (0.00) % injected dose
- Biodistribution of radioactivity, Lung (180 min after injection): 0.03 (0.01) % injected dose
- Biodistribution of radioactivity, Muscle (180 min after injection): 0.01 (0.01) % injected dose
- Biodistribution of radioactivity, Pancreas (180 min after injection): 0.02 (0.03) % injected dose
- Biodistribution of radioactivity, Small-intestine (180 min after injection): 0.06 (0.02) % injected dose
- Biodistribution of radioactivity, Spleen (180 min after injection): 0.02 (0.00) % injected dose
- F/B ratio (Femur:blood ratio) (180 min after injection): 1983.88 (256.88)
- Biodistribution of radioactivity, Stomach (180 min after injection): 0.13 (0.14) % injected dose
- Accumulation of radioactivity in bone (in words): high accumulation and retention of radioactivity in bone; also recorded: highest bone uptake
